Biological target: T1, ChrHI (ChrH with ChrI) (Chryseobacterium sp. JM1, UniProt A0A086ASD2)
T1 construct: gene IW22_14845
Test: MALDI-TOF MS of in vitro reaction products after LysC digestion
Type: biochemical
Conditions: precursor peptide ChrA as co-substrate, DTT, aerobic, iron-containing enzyme; methyl donor; also run with 13CD3-SAM (labelled compound)

T1 sequence (A0A086ASD2 entry or part of it): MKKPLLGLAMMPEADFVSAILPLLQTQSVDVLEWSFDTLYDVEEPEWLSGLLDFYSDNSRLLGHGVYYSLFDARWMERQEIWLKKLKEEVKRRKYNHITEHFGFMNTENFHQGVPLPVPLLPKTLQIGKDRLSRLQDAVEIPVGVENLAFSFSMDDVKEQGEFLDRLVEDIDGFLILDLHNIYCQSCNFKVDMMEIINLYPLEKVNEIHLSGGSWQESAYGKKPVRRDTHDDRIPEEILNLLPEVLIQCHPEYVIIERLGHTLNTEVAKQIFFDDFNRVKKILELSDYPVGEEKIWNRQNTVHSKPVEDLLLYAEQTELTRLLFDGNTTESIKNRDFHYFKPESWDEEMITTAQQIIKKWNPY

Compound: C[S+](CC[C@H](N)C(=O)O)C[C@H]1O[C@@H](n2cnc3c(N)ncnc32)[C@H](O)[C@@H]1O (stereo partly shown) [SAM, S-adenosylmethionine]
- MALDI-TOF MS of in vitro reaction products after LysC digestion: SAM is the methyl donor in the posttranslational modification of ChrA by ChrHI
